Values after ≈ are worked out from the molar mass of the structure shown.
Assays:
[1] = Stability in monkey plasma; assay type: in vitro ADME
Description: (§1) Experimental instruments: thermostatic shaker (SHA-B, Guohua Electric Appliance Co., Ltd.); centrifuge (5810R, Eppendorf); mass spectrometry (AP4000, Applied Biosystems, USA); liquid chromatography (LC-30AD, Shimadzu); sample injector (CTC Analytics AG System, CTC).
(§2) Test animals: plasma of human (batch number: BRH1343165), rat (batch number: RAT336728), mouse (batch number: MSE280000), dog (batch number: BGL99137) and monkey (batch number: PH-Monkey-20180821) are purchased from Shanghai Sixin Biological Technology Co., Ltd.
(§3) Experimental process: the compound of the present invention was dissolved in an organic solvent to obtain a 1 mM working solution. 3 μL of the working solution were added to 597 μL of pre-incubated human or rat plasma and mixed well. 50 μL of the solution were immediately taken out as the 0 minute sample. The remaining sample was incubated at 37° C., and 50 μL of sample were taken out at 15, 30, 60 and 120 minutes respectively. All the samples taken out were immediately processed to precipitate protein, and centrifuged to obtain a supermate for the determination of the compound concentration by LC/MS/MS.

[2] = Stability in mouse liver microsome; assay type: in vitro ADME; conditions: 2 μM, 37° C., 30 minutes
[3] = Pharmacokinetics assay in dog (nitroxoline concentration in plasma after single intravenous or oral administration); assay type: in vivo, beagle dog; conditions: for absorption in beagle dogs compared with nitroxoline: conclusion in words; for AUC0-inf: nitroxoline in beagle dog plasma
Description: Nitroxoline is mainly metabolized by the phase II metabolism in liver with a fast metabolism rate, so it has a short half-life in the body. The present invention modified its structure and 13 compounds of formula (I) were obtained through chemical synthesis. The change of nitroxoline concentration in dog plasma after a single intravenous or oral administration of nitroxoline and the compound of formula (I) was studied to evaluate the pharmacokinetic behavior of nitroxoline and the compound of formula (I) in dog body.
Male beagle dog (Beijing Marshall Biotechnology Co., Ltd., Certificate No.: SCXK (BJ) 2016-0001, Qualified number: 11400600001728), 3 dogs per group, weight 10 to 13 kg, 20 to 22 months old. The dogs were fasted overnight before the administration with free access to water, and fed 4 hours after the administration. The test compound was added to an EP tube, and then added with DMSO, solutol and sterilized water for injection (the volume ratio of the three was 1:2:17, v:v:v). The EP tube was subjected to ultrasound for 20 minutes to make the test compound dissolve well (compound concentration: 0.005 mmol/mL). The dose for intravenous administration was 0.01 mmol/kg, and the dose for oral administration was 0.1 mmol/kg. 0.3 ml of whole blood was collected from jugular vein before the administration (0 hour) and 0.0833, 0.25, 0.5, 1, 2, 4, 6, 8, 10 and 12 hours after the administration (sampling points can be adjusted according to the specific situation) respectively. The blood sample was placed in a centrifuge tube containing EDTA-K2 anticoagulant (Aldrich), and the centrifuge tube was left to stand in ice. The blood sample was centrifuged for 10 minutes at 1530 g within 0.5 hour to obtain all clean plasma. The plasma was placed in another clean centrifuge tube, and stored in a refrigerator at −20° C. for later use.
Solution for standard curve was formulated. 1000 μL of internal standard working solution (containing a solution of verapamil (5 ng/mL, Aldrich), glibenclamide (50 ng/mL, Aldrich) and diclofenac (50 ng/mL, Aldrich) in acetonitrile) was added to 10 μL of the solution for standard curve and sample, and the mixture was shaked by vortex for 5 minutes. The mixture was centrifuged for 10 minutes at 4° C., 3700 rpm. 60 μL of the supernatant were placed in an injection tube, and mixed with 120 μL of water. 10 μL of the solution were injected into the liquid chromatography-mass spectrometry system for determination. The pharmacokinetic parameters were calculated by the WinNonlin V 6.2 non-compartmental model.

[4] = Stability in human plasma
[5] = Stability in dog liver microsome; conditions: 2 μM, 37° C., 30 minutes
[6] = Stability in rat liver microsome; conditions: 2 μM, 37° C., 30 minutes
Description: (§4) Experimental instruments: thermostatic shaker (SHA-B, Guohua Electric Appliance Co., Ltd.); centrifuge (5810R, Eppendorf); mass spectrometry (API4000, Applied Biosystems, USA); liquid chromatography (LC-30AD, Shimadzu); sample injector (CTC Analytics AG System, CTC).
(§5) Experimental process: 25 μg/mL alamethicin (Aldrich), 5 mM magnesium chloride and 0.5 mg/mL microsome (XENOTECH) were added to 100 mM phosphate buffer to obtain a coenzyme-free reaction solution. A portion of the coenzyme-free reaction solution was added with 1 mM reductive nicotinamide adenine dinucleotide phosphate (Aldrich) and 5 mM uridine diphosphate glucuronic acid (Aldrich) to obtain a coenzyme-containing reaction solution. The working solution of the compound of the present invention was added to the two reaction solutions so that the final concentration of the compound was 2 μM. Immediately after mixing well, 50 μL of the solution were taken out as the 0 minute sample, and 50 μL of the remaining sample were taken out after incubating at 37° C. for 30 minutes. All the samples taken out were immediately processed to precipitate protein, and centrifuged to obtain a supernate for the determination of the compound concentration by LC/MS/MS.

[7] = Determination of water solubility in phosphate buffer; assay type: physicochemical; conditions: for solubility at 24 h: thermodynamic from solid; for water solubility compared with nitroxoline: conclusion in words
Outline: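 Thermodynamic solubility: compound concentration measured by LC/MS/MS in the vacuum filtrate after 24 h shaking at room temperature of 2 mg powder in 500 μL phosphate buffer at pH 1.2, 4.5, 6.8 or 7.4.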

[8] = Stability in human liver microsome; conditions: 2 μM, 37° C., 30 minutes
Description: as §4, §5

Stability in dog plasma = assay type: in vitro ADME
[9] = Stability in mouse plasma; assay type: in vitro ADME
Description: as §1, §2, §3

[10] = Stability in liver microsome, overall conclusion (species not stated); assay type: in vitro ADME; conditions: conclusion in words
[11] = Stability in plasma, overall conclusion (species not stated); conditions: conclusion in words
[12] = intravenous administration 0.01 mmol/kg
[13] = oral administration 0.1 mmol/kg
[14] = aqueous buffer, phosphate buffer pH 4.5, room temperature
[15] = aqueous buffer, phosphate buffer pH 6.8, room temperature
[16] = aqueous buffer, phosphate buffer pH 7.4, room temperature
[17] = simulated gastric fluid, phosphate buffer pH 1.2, room temperature

Description for Stability in rat plasma: as §1, §2, §3

Percentage of the compound remaining in plasma (Stability in rat plasma; 0 minute) [%] | Percentage of the compound remaining in plasma (Stability in rat plasma; 37° C., 15 minutes) [%] | Percentage of the compound remaining in plasma (Stability in rat plasma; 37° C., 30 minutes) [%] | Percentage of the compound remaining in plasma (Stability in rat plasma; 37° C., 60 minutes) [%] | Percentage of the compound remaining in plasma (Stability in rat plasma; 37° C., 120 minutes) [%] | Percentage of the compound remaining in mouse liver microsome ([2]; with coenzyme) [%] | Percentage of the compound remaining in mouse liver microsome ([2]; without coenzyme) [%] | AUC0-inf [3, 13] [ng*hmL^−1] | Percentage of the compound remaining in plasma ([4]; 0 minute) [%] | Percentage of the compound remaining in plasma ([4]; 37° C., 15 minutes) [%] | Percentage of the compound remaining in plasma ([4]; 37° C., 30 minutes) [%] | Percentage of the compound remaining in plasma ([4]; 37° C., 60 minutes) [%] | Percentage of the compound remaining in plasma ([4]; 37° C., 120 minutes) [%] | Percentage of the compound remaining in dog liver microsome ([5]; with coenzyme) [%] | Percentage of the compound remaining in dog liver microsome ([5]; without coenzyme) [%] | Percentage of the compound remaining in rat liver microsome ([6]; with coenzyme) [%] | Percentage of the compound remaining in rat liver microsome ([6]; without coenzyme) [%] | solubility at 24 h [7, 16] [µg/mL] | Percentage of the compound remaining in human liver microsome ([8]; with coenzyme) [%] | Percentage of the compound remaining in human liver microsome ([8]; without coenzyme) [%] | SMILES | other results
100.0 | 70.2 | 67.8 | 48.0 | 35.3 | 0.02 | 0.09 | 2474 | 100.0 | 97.2 | 98.0 | 94.1 | 84.6 | 0.07 | 0.28 | 0.08 | 2.92 | 6.62 (≈ 19.9 µM) | 0.06 | 0.25 | CCC(CC)C(=O)OC(C)Oc1ccc([N+](=O)[O-])c2cccnc12 (stereo not drawn) [Compound 51, 1-(5-nitroquinolin-8-yloxy)ethyl 2-ethylbutanoate] | Percentage of the compound remaining in plasma ([1]; 0 minute): 100.0%; Percentage of the compound remaining in plasma ([1]; 37° C., 15 minutes): 96.4%; Percentage of the compound remaining in plasma ([1]; 37° C., 30 minutes): 87.0%; Percentage of the compound remaining in plasma ([1]; 37° C., 60 minutes): 78.1%; Percentage of the compound remaining in plasma ([1]; 37° C., 120 minutes): 69.0%; absorption in beagle dogs compared with nitroxoline [3]: well absorbed; AUC0-inf [3, 12]: 1153 ng*hmL^−1; solubility at 24 h [7, 14]: 7.07 µg/mL (≈ 21.3 µM); solubility at 24 h [7, 15]: 5.69 µg/mL (≈ 17.1 µM); solubility at 24 h [7, 17]: 91.4 µg/mL (≈ 275 µM); Percentage of the compound remaining in plasma (Stability in dog plasma; 0 minute): 100.0%; Percentage of the compound remaining in plasma (Stability in dog plasma; 37° C., 15 minutes): 103.7%; Percentage of the compound remaining in plasma (Stability in dog plasma; 37° C., 30 minutes): 93.7%; Percentage of the compound remaining in plasma (Stability in dog plasma; 37° C., 60 minutes): 89.1%; Percentage of the compound remaining in plasma (Stability in dog plasma; 37° C., 120 minutes): 93.3%
 |  |  |  |  | 0.09 | 49.07 | 8750 |  |  |  |  |  | 33.13 | 53.50 | 3.64 | 46.82 | 978 (≈ 2530 µM) | 26.92 | 59.42 | CC(C)C(=O)N1CCC[C@H]1C(=O)OCOc1ccc([N+](=O)[O-])c2cccnc12 [Compound 20, (S)-(5-nitroquinolin-8-yloxy)methyl 1-isopropionylpyrrolidine-2-carboxylate] | absorption in beagle dogs compared with nitroxoline [3]: well absorbed; AUC0-inf [3, 12]: 1290 ng*hmL^−1; solubility at 24 h [7, 14]: 1050 µg/mL (≈ 2700 µM); solubility at 24 h [7, 15]: 962 µg/mL (≈ 2480 µM); water solubility compared with nitroxoline [7]: increased by several times; solubility at 24 h [7, 17]: 1010 µg/mL (≈ 2610 µM)
100.0 | 93.9 | 94.1 | 95.3 | 88.4 |  |  | 4780 | 100.0 | 99.3 | 98.3 | 100.6 | 91.6 |  |  |  |  | 352 (≈ 1850 µM) |  |  | O=[N+]([O-])c1ccc(O)c2ncccc12 [Nitroxoline] | Percentage of the compound remaining in plasma ([1]; 0 minute): 100.0%; Percentage of the compound remaining in plasma ([1]; 37° C., 15 minutes): 101.2%; Percentage of the compound remaining in plasma ([1]; 37° C., 30 minutes): 104.0%; Percentage of the compound remaining in plasma ([1]; 37° C., 60 minutes): 101.8%; Percentage of the compound remaining in plasma ([1]; 37° C., 120 minutes): 100.4%; AUC0-inf [3, 12]: 3300 ng*hmL^−1; Percentage of the compound remaining in plasma (Stability in dog plasma; 0 minute): 100.0%; Percentage of the compound remaining in plasma (Stability in dog plasma; 37° C., 15 minutes): 100.8%; Percentage of the compound remaining in plasma (Stability in dog plasma; 37° C., 30 minutes): 101.1%; Percentage of the compound remaining in plasma (Stability in dog plasma; 37° C., 60 minutes): 95.3%; Percentage of the compound remaining in plasma (Stability in dog plasma; 37° C., 120 minutes): 98.4%; Percentage of the compound remaining in plasma ([9]; 0 minute): 100.0%; Percentage of the compound remaining in plasma ([9]; 37° C., 15 minutes): 95.8%; Percentage of the compound remaining in plasma ([9]; 37° C., 30 minutes): 97.4%; Percentage of the compound remaining in plasma ([9]; 37° C., 60 minutes): 97.4%; Percentage of the compound remaining in plasma ([9]; 37° C., 120 minutes): 93.0%
100.0 | 102.5 | 90.1 | 84.6 | 71.3 | 95.16 | 105.69 |  | 100.0 | 95.6 | 94.1 | 89.2 | 83.3 | 85.67 | 91.82 | 101.34 | 99.39 | 687 (≈ 1960 µM) | 102.24 | 108.46 | CN(CC(O)CO)C(=O)OCOc1ccc([N+](=O)[O-])c2cccnc12 (stereo not drawn) [Compound 52, (5-nitroquinolin-8-yloxy)methyl 2,3-dihydroxypropyl(methyl)carbamate] | stability in microsome [10]: high stability; water solubility compared with nitroxoline [7]: increased by several times; stability in plasma [11]: high stability
100.0 | 2.2 | 0.0 | 0.0 | 0.0 | 0.44 | 0.34 | 1760 | 100.0 | 68.5 | 39.5 | 11.9 | 1.6 | 0.19 | 4.06 | 0.16 | 1.10 | 13 (≈ 40.9 µM) | 0.15 | 0.88 | CCC(CC)C(=O)OCOc1ccc([N+](=O)[O-])c2cccnc12 [Compound 5, (5-nitroquinolin-8-yloxy)methyl 2-ethylbutanoate] | Percentage of the compound remaining in plasma ([1]; 0 minute): 100.0%; Percentage of the compound remaining in plasma ([1]; 37° C., 15 minutes): 0.0%; Percentage of the compound remaining in plasma ([1]; 37° C., 30 minutes): 0.0%; Percentage of the compound remaining in plasma ([1]; 37° C., 60 minutes): 0.0%; Percentage of the compound remaining in plasma ([1]; 37° C., 120 minutes): 0.0%; absorption in beagle dogs compared with nitroxoline [3]: well absorbed; solubility at 24 h [7, 14]: 13.1 µg/mL (≈ 41.1 µM); solubility at 24 h [7, 15]: 11.1 µg/mL (≈ 34.9 µM); solubility at 24 h [7, 17]: 204 µg/mL (≈ 640 µM); Percentage of the compound remaining in plasma (Stability in dog plasma; 0 minute): 100.0%; Percentage of the compound remaining in plasma (Stability in dog plasma; 37° C., 15 minutes): 75.0%; Percentage of the compound remaining in plasma (Stability in dog plasma; 37° C., 30 minutes): 50.6%; Percentage of the compound remaining in plasma (Stability in dog plasma; 37° C., 60 minutes): 27.1%; Percentage of the compound remaining in plasma (Stability in dog plasma; 37° C., 120 minutes): 12.0%
